# Assay results as given in paper PMC8538301, “Structurally Diverse Polycyclic Salicylaldehyde Derivative Enantiomers from a Marine-Derived Fungus Eurotium sp. SCSIO F452” (Marine Drugs, 2021).
# Legend:
# [1] = tested on: SF-268 (human glioblastoma carcinoma); experiment: Cytotoxicity assay (SRB); type: cell-based; settings: SF-268 cells, mean ± SD
# Protocol: (§1) The cells of SF-268 (human glioblastoma carcinoma), MCF-7 (breast cancer), HepG-2 (liver cancer), and A549 (lung cancer) were purchased from Stem Cell Bank, Chinese Academy of Sciences. The cells were cultured in DMEM medium (Gibco) containing 10% fetal bovine serum (Gibco) at 37 °C in a humidified atmosphere with 5% (v/v) CO2. The cells were incubated in cultural flasks until sub-confluent (~80%). Then, cells (180 μL) with a density of 3 × 10^4 cells/mL of media were seeded onto 96-well plates and incubated for 24 h at 37 °C, 5% CO2. Subsequently, 20 μL of different concentrations of compounds ranging from 1 to 128 μM in DMSO were added to each plate well. Equal volume of DMSO was used as a negative control. The plates were further incubated for 72 h. After incubation, cell monolayers were fixed with 50% (wt/v) trichloroacetic acid (50 μL) and stained for 30 min with 0.4% (wt/v) SRB dissolved in 1% acetic acid. Unbound dye was removed by washing repeatedly with 1% acetic acid. The protein-bound dye was dissolved in 10 mM Tris base solution (200 µL) for OD determination at 570 nm using a microplate reader. […] All data were obtained in triplicate and presented as means ± SD. IC50 values were calculated with the Sigma Plot 10.0 software (Systat Software Inc., CA, USA) using a non-linear curve-fitting method.
# A549 (lung cancer) = experiment: Cytotoxicity assay (SRB); type: cell-based, human; settings: A549 cells, mean ± SD
# Protocol: as §1
# HepG2 (liver cancer) = experiment: Cytotoxicity assay (SRB); type: cell-based, human; settings: HepG2 cells, mean ± SD
# Protocol: as §1
# MCF-7 (breast cancer) = experiment: Cytotoxicity assay (SRB); type: cell-based, human; settings: MCF-7 cells, mean ± SD
# Protocol: as §1
# [2] = Antioxidative assay (DPPH radical scavenging); settings: 12 h, 517 nm
# Protocol: Sample stock solutions (10 mM) were diluted to final concentrations of 2, 4, 8, 16, 32, 64, and 128 μM in ethanol. Then, 100 μL 0.2 mmol/L DPPH ethanol solution was added to 100 μL sample solutions of different concentrations on 96-well plates, and allowed to react at room temperature. […] After 12 h, the absorbance values were measured at 517 nm and converted into the percentage antioxidant activity (AA) using the following formula: AA(%) = [1 − (Asample − Ablank)/Acontrol] × 100%. All data were obtained in triplicate and are presented as means ± S.D. EC50 values were calculated with the SigmaPlot 10.0 software (Systat Software Inc., CA, USA) using a non-linear curve-fitting method.
# α-glucosidase = experiment: α-Glucosidase inhibitory activity assay (PNPG substrate); type: biochemical; settings: pH 6.8, 37 °C
# Protocol: Inhibitory α-glucosidase activities were determined spectrophotometrically in a 96-well microtiter plate based on p-nitrophenyl-α-D-glucopyranoside (PNPG) as a substrate. In brief, 20 μL 0.2 U/mL α-glucosidase enzyme solution, 50 μL 0.1 mol/L PBS (pH 6.8), and 10 μL of the test compounds in DMSO were mixed and preincubated at 37 °C prior to initiation of the reaction by adding the substrate. After 10 min of preincubation, 20 μL 5 mmol/L PNPG solution was added and then incubated together at 37 °C. After 15 min of incubation, 20 μL 0.2 mol/L Na2CO3 was added to the test tubes to stop the reaction. The absorbance values were measured at 405 nm and converted into percentage inhibitory activity using the following formula: AA(%) = [1 − Asample/(Anegative control − Ablank)] × 100%. […] All data were obtained in triplicate and presented as means ± SD. IC50 values were calculated with the Sigma Plot 10.0 software using a non-linear curve-fitting method.
Structure (SMILES),"IC50 ([1]; Homo sapiens, SF-268, 72 h)","IC50 (A549 (lung cancer); Homo sapiens, A549, 72 h)","IC50 (HepG2 (liver cancer); Homo sapiens, HepG2, 72 h)","IC50 (MCF-7 (breast cancer); Homo sapiens, MCF7, 72 h)",EC50 [2],IC50 (α-glucosidase),IC50 ([1]; 72 h),IC50 (A549 (lung cancer); 72 h),IC50 (HepG2 (liver cancer); 72 h),IC50 (MCF-7 (breast cancer); 72 h)
"COc1cccc2c1C(=O)c1c(O)c3c(c(O)c1C2=O)C[C@@](O)(C(=O)CO)C[C@@H]3O[C@H]1C[C@H](N)[C@H](O)[C@H](C)O1 [Adriamycin, reference compound]",1.19 ± 0.03 µM,1.73 ± 0.04 µM,1.99 ± 0.07 µM,2.02 ± 0.04 µM,,,,,,
"CO[C@H]1O[C@@H]2CC[C@@H]([C@H](C)O)[C@@H]2c2c(O)cc(CC=C(C)C)c(O)c21 [(+)-2, Euroticin G]",> 100 µM,> 100 µM,> 100 µM,> 100 µM,76.9 ± 0.99 µM,38 ± 2.73 µM,,,,
"O=C1O[C@H]([C@@H](O)CO)C(O)=C1O [Ascorbic acid, reference compound]",,,,,11.3 ± 0.56 µM,,,,,
"CO[C@@H]1O[C@H]2CC[C@H]([C@@H](C)O)[C@H]2c2c(O)cc(CC=C(C)C)c(O)c21 [(−)-2, Euroticin G]",> 100 µM,> 100 µM,> 100 µM,> 100 µM,77.1 ± 1.88 µM,79.7 ± 1.74 µM,,,,
"CCCCC[C@H]1O[C@]2(C)Cc3c4c(cc(O)c3[C@H]1O2)C=CC(C)(C)O4 [(+)-1, Euroticin F]",21.9 ± 0.96 µM,33.8 ± 0.34 µM,28 ± 1.68 µM,27.2 ± 2.03 µM,42.3 ± 3.85 µM,> 100 µM,,,,
"CCCCCCCC1(O)CC(C=CC(C)(C)O)=CC1=O (single isomer, unassigned; (+)) [(+)-4, Euroticin I]",,,,,> 100 µM,> 100 µM,12.7 ± 0.46 µM,16.9 ± 0.92 µM,19.9 ± 5.09 µM,20.5 ± 1.54 µM
"CC(C)=CCc1cc2c(c(C=O)c1O)[C@@H]1[C@H](CC[C@@H]1O)[C@@H](C)O2 [(+)-5, eurotirumin]",22 ± 0.88 µM,47.3 ± 0.71 µM,41.2 ± 2.63 µM,55.6 ± 4.85 µM,> 100 µM,89.4 ± 7.86 µM,,,,
"CCCCC[C@@H]1O[C@@]2(C)Cc3c4c(cc(O)c3[C@@H]1O2)C=CC(C)(C)O4 [(−)-1, Euroticin F]",37.3 ± 2.46 µM,33.4 ± 1.5 µM,30.7 ± 3.55 µM,28 ± 1.57 µM,41.4 ± 2.68 µM,> 100 µM,,,,
"CCCCCCCC1(O)CC(C=CC(C)(C)O)=CC1=O (single isomer, unassigned; (-)) [(−)-4, Euroticin I]",23.7 ± 3.88 µM,22.2 ± 1.54 µM,19.5 ± 2.7 µM,23.6 ± 2.99 µM,> 100 µM,> 100 µM,,,,
"CCCCCC1(O)Cc2c3c(cc(O)c2C1=O)C=CC(C)(C)O3 (racemic) [(±)-3, Euroticin H]",> 100 µM,> 100 µM,> 100 µM,> 100 µM,> 100 µM,16.3 ± 1.68 µM,,,,
"CC(C)=CCc1cc2c(c(C=O)c1O)C1C(O)CCC1C(C)O2 (single isomer, unassigned; (-)) [(−)-5, eurotirumin]",35.6 ± 1.79 µM,42.6 ± 1.43 µM,40.7 ± 2.76 µM,50.7 ± 2.48 µM,> 100 µM,> 100 µM,,,,
